Experimental data published in patent US20250325677A1, “STAT6 DEGRADERS” (Gilead Sciences, Inc., priority 2024, published 2025).
pEC50: −log10 of the molar value.

Tests used:
STAT6 = STAT6 (Homo sapiens (Human), UniProt P42226); experiment: STAT6 degrader assay (HiBiT, HeLa LgBiT clone 4.14); format: cell-based; conditions: HeLa LgBiT clone 4.14, 4-24 h; geometric mean; given for compounds with >80% Emax; read-out: STAT6 degradation DC50
Procedure, shortened: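 DC50 (nM) comes from luminescence of non-degraded STAT6 read 0.5 h after Nano-GLO addition, following 4-24 h compound exposure at 37° C. Cells were HeLa clone 4.14 expressing LgBiT with a CRISPR HiBiT tag on endogenous STAT6; 50 μM terfenadine set full degradation.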

eotaxin-3 release = experiment: Human whole blood eotaxin-3 assay (IL-4 stimulated); format: cell-based; conditions: human whole blood, IL-4 0.4 nM, 48 hours; geometric mean; given for compounds with >80% Emax; read-out: Eotaxin-3 EC50
Procedure, shortened: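 Human whole blood was preincubated with compound for 120 min at 37 °C, then stimulated with recombinant human IL-4 (E. coli) at 0.4 nM final for 48 h. Inhibition of eotaxin-3 release gave EC50 values.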

Chain of STAT6 (P42226 whole entry): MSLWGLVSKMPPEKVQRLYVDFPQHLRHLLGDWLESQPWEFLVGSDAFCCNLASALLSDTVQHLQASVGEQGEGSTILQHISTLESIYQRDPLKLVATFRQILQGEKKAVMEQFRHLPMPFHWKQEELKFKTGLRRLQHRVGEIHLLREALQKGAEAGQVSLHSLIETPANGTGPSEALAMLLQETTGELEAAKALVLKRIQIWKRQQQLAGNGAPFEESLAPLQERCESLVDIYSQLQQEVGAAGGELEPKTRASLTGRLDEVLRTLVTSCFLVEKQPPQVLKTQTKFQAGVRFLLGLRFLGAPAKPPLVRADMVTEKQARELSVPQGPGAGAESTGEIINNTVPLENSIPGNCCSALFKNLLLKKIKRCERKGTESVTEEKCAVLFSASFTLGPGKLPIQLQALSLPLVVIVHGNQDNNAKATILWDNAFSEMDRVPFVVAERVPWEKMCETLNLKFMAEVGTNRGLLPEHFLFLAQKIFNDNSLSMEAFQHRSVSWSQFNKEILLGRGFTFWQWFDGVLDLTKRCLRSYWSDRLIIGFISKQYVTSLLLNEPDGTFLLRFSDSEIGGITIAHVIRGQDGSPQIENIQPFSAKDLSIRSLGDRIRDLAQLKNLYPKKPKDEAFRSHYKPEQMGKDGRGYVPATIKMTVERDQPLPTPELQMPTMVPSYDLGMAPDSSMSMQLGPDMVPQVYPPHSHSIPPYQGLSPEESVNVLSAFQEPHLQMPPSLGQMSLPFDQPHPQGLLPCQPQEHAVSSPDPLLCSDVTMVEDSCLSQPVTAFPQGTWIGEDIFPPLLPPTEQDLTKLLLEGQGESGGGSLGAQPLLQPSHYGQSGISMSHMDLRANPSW

SMILES	DC50 (STAT6) [nM]	pEC50 (eotaxin-3 release)
C[C@H]1CN(Cc2ccc3c(c2)n(C)c(=O)n3C2CCC(=O)NC2=O)CCN1CC1CCN(C(=O)c2ccc(C3CCN([C@@H](C)c4cc5c(-c6ccc7[nH]c(=O)n(C)c7c6)ccnc5n4C)CC3)cc2)CC1 (stereo partly drawn) [Example 3e37, 3-(3-methyl-5-(((S)-3-methyl-4-((1-(4-(1-((S)-1-(1-methyl-4-(3-methyl-2-oxo-2,3-dihydro-1H-benzo[d]imidazol-5-yl)-1H-pyrrolo[2,3-b]pyridin-2-yl)ethyl)piperidin-4-yl)benzoyl)piperidin-4-yl)methyl)piperazin-1-yl)methyl)-2-oxo-2,3-dihydro-1H-benzo[d]imidazol-1-yl)piperidine-2,6-dione]	0.2	8.85
C[C@H]1CN(Cc2ccc3c(c2)n(C)c(=O)n3C2CCC(=O)NC2=O)CCN1CC1CCN(C(=O)c2ccc(C3CCN([C@@H](C)c4cc5c(-c6ncc(N)cc6F)ccnc5n4C)CC3)cc2)CC1 (stereo partly drawn) [Example 3e38, 3-(5-(((S)-4-((1-(4-(1-((S)-1-(4-(5-amino-3-fluoropyridin-2-yl)-1-methyl-1H-pyrrolo[2,3-b]pyridin-2-yl)ethyl)piperidin-4-yl)benzoyl)piperidin-4-yl)methyl)-3-methylpiperazin-1-yl)methyl)-3-methyl-2-oxo-2,3-dihydro-1H-benzo[d]imidazol-1-yl)piperidine-2,6-dione]	1	8.11
C[C@H]1CN(Cc2ccc3c(c2)n(C)c(=O)n3C2CCC(=O)NC2=O)CCN1CC1CCN(C(=O)c2ccc(C3CCN([C@@H](C)c4cc5c(-c6ccc(NCCO)nc6)ccnc5n4C)CC3)cc2)CC1 (stereo partly drawn) [Example 3e40, 3-(5-(((S)-4-((1-(4-(1-((S)-1-(4-(6-((2-hydroxyethyl)amino)pyridin-3-yl)-1-methyl-1H-pyrrolo[2,3-b]pyridin-2-yl)ethyl)piperidin-4-yl)benzoyl)piperidin-4-yl)methyl)-3-methylpiperazin-1-yl)methyl)-3-methyl-2-oxo-2,3-dihydro-1H-benzo[d]imidazol-1-yl)piperidine-2,6-dione]	0.5	8.42
COc1nc(N)ccc1-c1ccnc2c1cc([C@H](C)N1CCC(c3ccc(C(=O)N4CCC(CN5CCN(Cc6ccc7c(c6)n(C)c(=O)n7C6CCC(=O)NC6=O)C[C@@H]5C)CC4)cc3)CC1)n2C (stereo partly drawn) [Example 3e41, 3-(5-(((S)-4-((1-(4-(1-((S)-1-(4-(6-amino-2-methoxypyridin-3-yl)-1-methyl-1H-pyrrolo[2,3-b]pyridin-2-yl)ethyl)piperidin-4-yl)benzoyl)piperidin-4-yl)methyl)-3-methylpiperazin-1-yl)methyl)-3-methyl-2-oxo-2,3-dihydro-1H-benzo[d]imidazol-1-yl)piperidine-2,6-dione]	0.2	9.10
C[C@@H](c1cc2c(-c3ccc(N)nc3)ccnc2n1C)N1CCC(c2ccc(C(=O)N3CCC(CN4CCN(Cc5ccc6c(c5)n(C)c(=O)n6C5CCC(=O)NC5=O)C[C@@H]4C(F)(F)F)CC3)cc2)CC1 (stereo partly drawn) [Example 3e42, 3-(5-(((R)-4-((1-(4-(1-((S)-1-(4-(6-aminopyridin-3-yl)-1-methyl-1H-pyrrolo[2,3-b]pyridin-2-yl)-ethyl)piperidin-4-yl)benzoyl)piperidin-4-yl)methyl)-3-(trifluoromethyl)piperazin-1-yl)methyl)-3-methyl-2-oxo-2,3-dihydro-1H-benzo[d]imidazol-1-yl)piperidine-2,6-dione]	1.8	8.47
C[C@@H](c1cc2c(-c3ccc(N)nc3)ccnc2n1C)N1CCC(c2ccc(C(=O)N3CCC(CN4CCN(Cc5ccc6c(c5)n(C)c(=O)n6C5CCC(=O)NC5=O)C[C@H]4C(F)(F)F)CC3)cc2)CC1 (stereo partly drawn) [Example 3e43, 3-(5-(((S)-4-((1-(4-(1-((S)-1-(4-(6-aminopyridin-3-yl)-1-methyl-1H-pyrrolo[2,3-b]pyridin-2-yl)ethyl)piperidin-4-yl)benzoyl)piperidin-4-yl)methyl)-3-(trifluoro-methyl)piperazin-1-yl)methyl)-3-methyl-2-oxo-2,3-dihydro-1H-benzo[d]imidazol-1-yl)piperidine-2,6-dione]	2.8	8.34
